Experimental data from patent publication US20240024233A1, “Oral Hydrogel Compositions and Uses” (Colgate-Palmolive Company, priority 2020, published 2024).
Values after ≈ are worked out from the molar mass of the structure shown.

Experiments:
[1] = Tetrahydrocurcumin solubility (saturation) in hydrogel formulations, UV 280 nm; assay type: physicochemical; settings: 4 °C, aqueous with cosolvent or surfactant or cyclodextrin, thermodynamic from solid; tested gels
Description: Tetrahydrocurcumin is a highly insoluble drug. It has water solubility of about 6 μg/mL, and this has severely limited attempts to evaluate its in vitro or in vivo potency as a drug because of the difficulty of formulating compositions which can effectively deliver it to body tissues. It is thus a useful reference for compositions intended to deliver low-solubility active agents.
A range of hydrogel formulations are prepared in cold (4° C.) deionized water. Each cold formulation liquid is loaded with tetrahydrocurcumin (0.3 mg/mL of gel) via dispersion with a Speed Mixing apparatus (FlackTek, Inc). Samples are left to interact at 4° C. for 48 hours. Formulations are centrifuged at 10,000 rpm for 60 seconds to separate undissolved active. The saturation of active is determined via UV absorbance at 280 nm.
Tetrahydrocurcumin is found to be soluble in the above tested gels at the following saturation concentrations: […]

[2] = in water; cited from earlier work
[3] = tested on: Actinomyces viscosus (ATCC #43146) and Streptococcus oralis (ATCC #35037); test: Viability via SIKT with degraded oral gel; assay type: cell-based; settings: for percentage of cells that are viable relative to PBS control: n = 6
Text: For viability via SIKT, the same gel degradation procedure as described above is used to treat an overnight culture of Actinomyces viscosus (ATCC #43146) and Streptococcus oralis (ATCC #35037). […] Samples are then processed and the results are presented as a percentage of cells that are viable relative to a control sample treated with PBS alone (negative control).

Row | Compound | solubility at 48 h [1] [µg/mL] | water solubility [2] | percentage of cells that are viable relative to PBS control, Average ([3]; Average of Day 0-28, n = 24) [%] | percentage of cells that are viable relative to PBS control ([3]; Day 0, 30 seconds treatment) [%] | percentage of cells that are viable relative to PBS control ([3]; Day 7, 30 seconds treatment) [%] | percentage of cells that are viable relative to PBS control ([3]; Day 14, 30 seconds treatment) [%] | percentage of cells that are viable relative to PBS control ([3]; Day 28, 30 seconds treatment) [%]
1 | COc1cc(CCC(=O)CC(=O)CCc2ccc(O)c(OC)c2)ccc1O [Tetrahydrocurcumin] | 85 to 236 (≈ 228 to 634 µM) | about 6 μg/mL | – | – | – | – | –
2 | CCO [Ethanol] | – | – | 16.3 | 16.8 | 14.5 | 14.7 | 19.0
